Here are results for one substance from patent US20170267986A1, “GENERATION OF MANNOSE-6-PHOSPHATE CONTAINING RECOMBINANT ALPHA-N-ACETYL GLUCOSAMINIDASE” (SHIRE HUMAN GENETIC THERAPIES, INC., priority 2014, published 2017).

Common to all, as to format: biochemical
Assay [1] concerns the target T1, rhNaglu (Homo sapiens, UniProt P54802).
T1 construct: The N-terminal 23 amino acids are cleaved as the precursor protein enters the endoplasmic reticulum, resulting in a mature form; made in house; host or cells: human fibrosarcoma HT1080 cell clone over-expressing rhNaglu
T1 sequence (P54802 24-743): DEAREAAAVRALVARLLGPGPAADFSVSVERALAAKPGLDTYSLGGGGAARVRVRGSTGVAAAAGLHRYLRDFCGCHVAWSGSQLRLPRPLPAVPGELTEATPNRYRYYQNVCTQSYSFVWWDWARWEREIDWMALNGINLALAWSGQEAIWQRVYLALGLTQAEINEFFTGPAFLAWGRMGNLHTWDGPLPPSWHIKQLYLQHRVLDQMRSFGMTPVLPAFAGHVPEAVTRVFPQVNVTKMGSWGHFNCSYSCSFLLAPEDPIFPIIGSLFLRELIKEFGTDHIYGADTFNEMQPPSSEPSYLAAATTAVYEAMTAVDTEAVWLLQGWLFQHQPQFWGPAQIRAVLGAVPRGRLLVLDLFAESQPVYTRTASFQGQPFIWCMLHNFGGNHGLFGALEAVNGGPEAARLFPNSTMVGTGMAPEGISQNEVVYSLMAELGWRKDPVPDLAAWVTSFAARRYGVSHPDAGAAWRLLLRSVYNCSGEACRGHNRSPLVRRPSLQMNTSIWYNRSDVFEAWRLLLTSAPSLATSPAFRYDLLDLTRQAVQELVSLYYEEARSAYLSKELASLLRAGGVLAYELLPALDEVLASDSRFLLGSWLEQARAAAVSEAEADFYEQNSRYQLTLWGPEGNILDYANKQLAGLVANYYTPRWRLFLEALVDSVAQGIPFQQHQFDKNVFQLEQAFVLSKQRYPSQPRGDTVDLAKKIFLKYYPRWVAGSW
Briefly: Naglu activity assay with various inhibitors (4MU-GlcNAc fluorescent substrate). The following applies: added at 0.0625, 0.25, 1, 4 and 8 mM; 37° C., 1 hour, pH 4.5. How it is done: A 10 mM stock of Naglu activity substrate solution was prepared by dissolving 5 mg of substrate, i.e., 4-methylumbelliferyl-N-acetyl-α-D-glucosaminide, in 250 μl of 100% DMSO. Naglu activity assay reaction buffer (0.1 M sodium acetate, 0.5 mg/ml BSA, pH 4.5) was then added to bring the volume up to 1318 μl. This 10 mM substrate stock solution was then diluted 10 fold with reaction buffer to make the final 1 mM substrate solution.
Samples and controls were pre-diluted in reaction buffer. 10 μl of each pre-diluted sample/control were applied in duplicate wells on a black clear bottom 96 well plate. 75 μl of 1 mM substrate solution containing various concentrations of inhibitors were added to each well. The plates were sealed with plate sealer and wrapped with aluminum foil. The plates were then placed in a Boekel Jitterbug Microplate Incubator Shaker (Cole-Parmer, Vernon Hills, Ill.) and shaken (setting at #1) at 37° C. for 1 hour. 200 μl of Stop Buffer (0.2 M Glycine, pH 10.7) were then added to all of the wells and fluorescence emission (excitation/emission at 360 nm/460 nm, respectively) was measured using a SpectraMax® Plus M2 plate reader from Molecular Devices (Sunnyvale, Calif.).
To further confirm that rhNaglu could hydrolyze UDP-GlcNAc, we investigated whether UDP-GlcNAc inhibited the hydrolysis by rhNaglu of the fluorescent substrate 4MU-GlcNAc (4-methylumbelliferyl-N-acetyl-α-D-glucosaminide) in a Naglu activity assay. Briefly, UDP-GlcNAc, as well as GlcNAc, UDP-GalNAc and Glucosamine, were added to the Naglu activity assay at 0.0625, 0.25, 1, 4 and 8 mM concentrations. The fluorescence emitted from these samples was compared to control samples only including rhNaglu and 4MU-GlcNAc.

Assay [2] deals with T1, rhNaglu. Briefly: Naglu substrate analysis: hydrolysis of UDP-sugars by rhNaglu, PAD-HPLC. Conditions: 0.8 mM UDP-sugar, rhNaglu 2.6 to 2,000 μg/ml, Tris pH 7.15, 37° C., 1 hour. How it is done: Recombinant human Naglu was co-incubated with uridine diphosphate N-acetylglucosamine (UDP-GlcNAc) or uridine diphosphate N-acetyl galactosamine (UDP-GalNAc). UDP-GlcNAc, GlcNAc (N-acetylglucosamine) and UDP-GalNAc were detected using PAD-HPLC (Pulsed Amperometric Detection-High Pressure Liquid Chromatography) that was modified after Chavaroche et al. 2011.
Recombinant human Naglu was dialyzed into Tris buffer (40 mM Tris pH 7.15, 100 mM NaCl, 4 mM MgCl2, and 4 mM MnCl2) and concentrated with VivaSpin® sample concentrators having a 30 kDa cut-off (Viva Products, Inc., Littleton, Mass.). […]
Samples were then subjected to centrifugation at 10,000 rpm, and the resulting supernatants were loaded on PA10 columns and detected by PAD-HPLC (Pulsed Amperometric Detection-High Pressure Liquid Chromatography) (Dionex ICS-3000 Ion Chromatography System (Thermo Fisher Scientific, Inc., Sunnyvale, Calif.)). […] The peak areas for the eluted UDP-GlcNAc were measured, and the reductions of the area under the curve (AUC) in response to increased concentrations of rhNaglu were determined (FIG. 1A). A new peak at 10.7 minutes was detected on the chromatograms of samples treated with concentrations of rhNaglu of 23.4 μg/ml and above. […] The peak areas for the eluted GlcNAc were measured, and the increases of the AUC in response to increased concentrations of rhNaglu were determined (FIG. 1B). […]

Assay [3] addresses T1, rhNaglu. The assay can be described thus: Isothermal titration calorimetry (ITC) of UDP-GlcNAc hydrolysis by rhNaglu. The following applies: preliminary ITC data. From the text:
The reduction of the UDP-GlcNAc substrate in the samples containing rhNaglu (FIG. 3A) and the formation of the reaction product GlcNAc in the samples containing rhNaglu (FIG. 3B) was apparent. The reductions of UDP-GlcNAc and the formation of GlcNAc were dependent on the initial concentration of UDP-GlcNAc in the reaction sample.

With “uridine diphosphate N-acetylglucosamine [UDP-GlcNAc]”, on rhNaglu [1], the “inhibition of rhNaglu activity toward 4MU-GlcNAc” value is recorded as “Inhibition”. Further, the “hydrolysis by rhNaglu” value on rhNaglu [2] is on record as “hydrolyses”. Moreover, the “Km of hydrolysis by rhNaglu” value at rhNaglu [3] is “milimolar range”.
